These results are taken from patent publication US8158621B2, “Methods of treating or preventing autoimmune diseases with 2,4-pyrimidinediamine compounds” (Rigel Pharmaceuticals, Inc., priority 2002, dated 2012).

Each structure is given as a SMILES string. Where only a bound is given, the exact number is not on record here.

The subject of one assay is Human Jurkat T-cells (clone N). Put plainly: Jurkat T-cell activation (anti-TCR, CD69 upregulation). Type of assay: cell-based.
Conditions: not given
Here is the method: The screening process took place over three days.
On the first day of the screen, cultured cells were spun down on a centrifuge (1000 rpm, 5 minutes) and resuspended at 3.0×10^5 cells/ml in RPMI+5% FBS. On the second day of the screen, cells were spun down at 1000 rpm for 5 minutes and resuspended in RPMI+5% FBS at 1.3×10^5 cells/ml. 85 μl of this cell suspension were added to the wells of U-bottom 96 well plates (Corning) 85 μl of compound or diluted RPMI+5% FBS (as a control) only was added to each well and incubated at 37° C. for 1 hour. The cells were then stimulated with anti-TCR (C305) at: 500 ng/ml by adding a 8× solution in 25 μl to the plated cells. The cells were then incubated at 37° C. for 20 hrs.
On the third day of the screen, the plates were spun at 2500 RPM for 1 minute on a Beckman GS-6R centrifuge, and the medium was then removed. 50 μl staining solution (1:100 dilution of anti-CD69-APC antibody (Becton Dickenson) in PBS+2% FBS) was then added to each well, followed by incubation of the plates 4 degrees for 20 minutes in the dark. 150 μl of wash buffer (PBS+2% FBS) was then added to each well, and the plates were spun at 3000 RPM for 1 minute. The supernatant was again removed, and the pellet was resuspended by vortexing gently. 75 μl of PBS+2% FBS +Cytofix (1:4 dilution) was then added, the plates gently vortexed and wrap in aluminum foil. Cells from the plates were read using a flow cytometer coupled to an automated liquid handling system.
Varied concentrations of compound were compared to solvent only to determine the inhibition of T-cell activation IC50 of each compound.
As to `Oc1cccc(Nc2nc(Nc3ccc(OCc4nnn[nH]4)cc3)ncc2F)c1` [Compound R920818], the IC50 (in general, the concentration that gives 50% inhibition) was over 10 µM.

In turn, `CC1(C)CN(c2ccccn2)c2cc(Nc3nc(Cl)ncc3F)ccc2O1` [Compound R940336] yielded an IC50 of over 10 µM.

For `CSc1nc2ccc(Nc3ncc(F)c(Nc4ccc5c(c4)OCCO5)n3)cc2s1` [Compound R950201], the half-inhibitory concentration (IC50) came to 4.5 µM.

For the compound `CCOC(=O)COc1ccc(Nc2nc(Nc3ccc(OCC(=O)OCC)cc3)c(N)c(C(=O)OCC)n2)cc1` [Compound R926567], the IC50 is over 10 µM.

For `COC(=O)c1ccc(Cn2cc3ccc(Nc4ncc(F)c(Nc5cccc(O)c5)n4)cc3n2)c(OC)c1` [Compound R935337], the IC50 stood at 2.54 µM.

Compound `O=C(COc1cccc(Nc2ncc(F)c(Nc3ccc4c(c3)OCCO4)n2)c1)N1CCNCC1` [Compound R926503] registered an IC50 of 2.6 µM.

As for `O=C(CNc1cccc(Nc2ncc(F)c(Nc3ccc4c(c3)OCCO4)n2)c1)N1CCOCC1` [Compound R950193], the IC50 was 2.83 µM.

In turn, `O=C(CNc1cccc(Nc2ncc(F)c(Nc3ccc4c(c3)OCCO4)n2)c1)NCCO` [Compound R950195] gave an IC50 of 1.8 µM.

For `Cc1noc(COc2ccc(Nc3ncc(F)c(Nc4cccc(O)c4)n3)cc2)n1` [Compound R935141], the IC50 is over 10 µM.

Compound `CNC(=O)COc1cccc(Nc2ncc(F)c(Nc3ccc4c(c3)OCC(=O)N4)n2)c1` [Compound R908700] gave an IC50 of 13.7 µM.

`CCOC(=O)CNC(=O)Nc1c(Nc2ccc(OCC(=O)OCC)cc2)nc(Nc2ccc(OCC(=O)OCC)cc2)nc1C(=O)OCC` [Compound R926587] had an IC50 of over 10 µM.

`O=C(c1cccc(Nc2ncc(F)c(Nc3ccc4cc[nH]c4c3)n2)c1)N1CCOCC1` [Compound R926934]: the IC50 is 6.01 µM.

In turn, `OCCn1ncc2cc(Nc3nc(Nc4ccc5c(c4)OCCO5)ncc3F)ccc21` [Compound R935258] had an IC50 of 6.26 µM.

With `CNC(=O)COc1cccc(Nc2ncc(F)c(Nc3ccc(OCCC(=O)OC)cc3)n2)c1` [Compound R950346], the midpoint of inhibition, the IC50, lay at 1.95 µM.

`O=C1OCc2ccc(Nc3ncc(F)c(Nc4ccc5c(c4)OCCO5)n3)cc21` [Compound R926786] had an IC50 of 7.36 µM.

`CC(C)Oc1ccc(Nc2ncc(F)c(Nc3ccc4[nH]ncc4c3)n2)cc1` [Compound R935266] yielded an IC50 of over 10 µM.

With `CON=C(N)COc1ccc(Nc2ncc(F)c(Nc3cccc(O)c3)n2)cc1` [Compound R945167], the IC50 worked out at 5.07 µM.

As to `CON=C(N)COc1ccc(Nc2nc(Nc3ccc4c(c3)OCCO4)ncc2F)cc1` [Compound R945175], the IC50 was found to be 3.79 µM.

`CNC(=O)COc1cccc(Nc2ncc(F)c(Nc3ccc4c(c3)OCCO4)n2)c1` [Compound R926826]: the IC50 was 3.73 µM. This IC50 and that of the compound before are within 1.5-fold of each other.

For `CNC(=O)COc1cccc(Nc2ncc(F)c(Nc3cc(OC)c(Cl)cc3OC)n2)c1` [Compound R926859], the IC50 is over 10 µM.

Take `COC(=O)c1cc2cc(Nc3ncc(F)c(Nc4ccc5[nH]c(C(=O)OC)cc5c4)n3)ccc2[nH]1` [Compound R926593]: 1.28 µM corresponded to half-maximal inhibition (IC50).

The compound `CCOC(=O)COc1cccc(Nc2ncc(F)c(Nc3ccc4c(c3)C(=O)OC4)n2)c1` [Compound R940285] gave an IC50 of over 10 µM.

Regarding `COC(=O)c1cc(Nc2nc(Nc3ccc4c(c3)OCCO4)ncc2F)cn1C` [Compound R935166], the IC50 is over 10 µM.

`COC(=O)COc1ccc(Nc2ncc(F)c(Nc3ccc4c(c3)OCCCO4)n2)cc1` [Compound R935182] returned an IC50 of 23.9 µM. That is a double-digit micromolar value.

On to `Cc1nc(COc2cccc(Nc3nc(Nc4ccc5c(c4)OCCO5)ncc3F)c2)no1` [Compound R945137], for which the IC50 is 5.43 µM.

In the case of `C=CCNC(=O)Nc1c(Nc2ccc(OCC(=O)OCC)cc2)nc(Nc2ccc(OCC(=O)OCC)cc2)nc1C(=O)OCC` [Compound R926585], the IC50 is over 10 µM.

On to `COC(=O)COc1ccc(Nc2ncc(F)c(Nc3ccc(OCC#N)cc3)n2)cc1` [Compound R945053], for which inhibition was half-maximal at 2.67 µM (IC50). This lies in the single-digit micromolar range.

Consider `CNC(=O)COc1cccc(Nc2ncc(F)c(Nc3ccc(OC)c(CN(C)C)c3)n2)c1` [Compound R940321], for which the IC50 amounted to 3.68 µM.

On to `COc1cc(C(=O)NS(=O)(=O)c2ccccc2C)ccc1Cn1ncc2ccc(Nc3ncc(F)c(Nc4cccc(O)c4)n3)cc21` [Compound R935324], for which the IC50 is over 10 µM.

`CNC(=O)COc1cccc(Nc2ncc(F)c(Nc3ccc4c(c3)OCC(=O)N4C)n2)c1` [Compound R909261] returned an IC50 of 2.94 µM.

`OCC(O)COc1ccc(Nc2ncc(F)c(Nc3ccc4c(c3)OCCO4)n2)cc1` (stereo not shown) [Compound R935179] registered an IC50 of 3 µM.

With `Fc1cnc(Nc2ccc3c(c2)CCO3)nc1Nc1ccc2c(c1)CCO2` [Compound R909237], the half-maximal inhibitory concentration (IC50) is over 10 µM.

Consider `COC(=O)Cn1ncc2cc(Nc3nc(Nc4cccc(O)c4)ncc3F)ccc21` [Compound R935250], for which the IC50 was 6.24 µM. This lies in the single-digit micromolar range.

`O=C(COc1cccc(Nc2ncc(F)c(Nc3ccc4c(c3)C(=O)OC4)n2)c1)NCC(O)CO` (stereo not shown) [Compound R940293] returned an IC50 of over 10 µM.

In the case of `COc1ccc(Nc2nc(Nc3cccc(OCC(=O)NCC(O)CO)c3)ncc2F)cc1OC` (stereo not shown) [Compound R926734], the IC50 is 11.3 µM.

For the compound `O=C(NCCNCc1ccccc1)c1cc2cc(Nc3ncc(F)c(Nc4ccc5oc(C(=O)NCCNCc6ccccc6)cc5c4)n3)ccc2o1` [Compound R950169], the IC50 is over 10 µM.

For `CN(CCO)C(=O)c1cc2cc(Nc3ncc(F)c(Nc4cccc(O)c4)n3)ccc2o1` [Compound R926725], the IC50 was 3.37 µM.

For the compound `Oc1cccc(Nc2ncc(F)c(Nc3ccc4cn[nH]c4c3)n2)c1` [Compound R935262], the IC50 turned out to be 3.11 µM. The IC50 values of the last two compounds are within 1.5-fold of each other.

As to `COC(=O)COc1ccc(Nc2ncc(F)c(Nc3ccc(OC(C)C)cc3)n2)cc1` [Compound R935159], the concentration for half-maximal inhibition (IC50) was over 10 µM.

Compound `CN(C)C(=O)c1cc2cc(Nc3ncc(F)c(Nc4cccc(O)c4)n3)ccc2o1` [Compound R926718] gave a half-maximal inhibitory concentration (IC50) of 12.4 µM.

`OCCn1ncc2ccc(Nc3ncc(F)c(Nc4ccc5c(c4)OCCO5)n3)cc21` [Compound R935248] came in with an IC50 of 1.9 µM. This IC50 lies about 6.5-fold lower than the previous one.

Still in this assay, the particulars now being: Homo sapiens.
As for `O=[N+]([O-])c1cc(Nc2ncc(F)c(Nc3ccc(F)c([N+](=O)[O-])c3)n2)ccc1F` [Compound R950148], the IC50 is over 10 µM.

Staying with this assay, now noted: Homo sapiens, Jurkat.
On to `CNC(=O)c1cc2cc(Nc3ncc(F)c(Nc4cccc(C(C)(C)C)c4)n3)ccc2o1` [Compound R940291], for which the IC50 amounted to 9.45 µM. This counts as single-digit micromolar.

Take `Oc1cccc(Nc2ncc(-c3ccccc3)c(Nc3cccc(O)c3)n2)c1` [Compound R925783]: the IC50 is over 10 µM.

`OCc1cccc(Nc2ncc(F)c(Nc3cccc(CO)c3)n2)c1` [Compound R925757] yielded an IC50 of over 10 µM.

`CCc1ccc(Nc2ncc(F)c(Nc3ccc4c(c3)OCCO4)n2)cc1` [Compound R926237] had an IC50 of over 10 µM.

With `Oc1cccc(Nc2nc(Nc3cccc(-c4nnn[nH]4)c3)ncc2F)c1` [Compound R926842], the IC50 was over 10 µM.

As for `CCOC(=O)CNc1nc(NCC(=O)OCC)c(N)c(C(=O)OCC)n1` [Compound R925865], the IC50 was over 10 µM.

Consider `CNC(=O)c1cccc(Nc2ncc(F)c(Nc3cccc(O)c3)n2)c1` [Compound R926936], for which it took 7.88 µM to reach half-maximal inhibition (IC50).

Compound `Cc1noc(C)c1Nc1ncc(F)c(Nc2ccc3c(c2)OCCO3)n1` [Compound R926744] returned a 50% inhibitory concentration (IC50) of over 10 µM.

In the case of `OCCOc1ccc(Nc2ncc(F)c(Nc3cccc(O)c3)n2)cc1` [Compound R926376], the half-maximal inhibitory concentration (IC50) is over 10 µM.

`Oc1ccc(CCNc2ncc(Br)c(NCCc3ccc(O)cc3)n2)cc1` [Compound R925792] had an IC50 of 8.65 µM.

`Fc1cnc(NCCCN2CCN(Cc3c(F)cccc3Cl)CC2)nc1Nc1ccc2c(c1)OCCO2` [Compound R926717] had an IC50 of 3.75 µM.

`O=C1CCNC2=COc3ccc(Nc4nc(Nc5cccc(O)c5)ncc4F)cc3N12` [Compound R945237] showed an IC50 of 0.838 µM.

On to `CN1C(=O)COc2cc(Nc3nc(Nc4cccc(O)c4)ncc3F)ccc21` [Compound R909264], for which the IC50 worked out at 3.24 µM.

Compound `Cc1ccc(-c2ccccc2)cc1Nc1ccnc(Nc2cc(-c3ccccc3)ccc2C)n1` [Compound R925807] registered an IC50 of over 10 µM.

Turning to `COc1ccc(Nc2nc(NCCN3CCN(Cc4ccccc4)CC3)ncc2F)cc1OC` [Compound R940262], the IC50 turned out to be 6.45 µM.

As for `Oc1cccc(Nc2cc(Cl)nc(Nc3cccc(O)c3)n2)c1` [Compound R926408], the concentration for half-maximal inhibition (IC50) is over 10 µM.

For the compound `CCOC(=O)c1cc2cc(Nc3ncc(F)c(Nc4ccc(C(C)(C)C)cc4)n3)ccc2[nH]1` [Compound R926474], the IC50 came out at 10.8 µM.

The compound `N#Cc1ccc(Nc2ncc(F)c(Nc3ccc(C#N)cc3)n2)cc1` [Compound R945057] had an IC50 of over 10 µM.

`Oc1cccc(Nc2ncc(F)c(NCCSCc3c(F)cccc3Cl)n2)c1` [Compound R926724] came in with an IC50 of over 10 µM.

On to `Cc1cnc(NCCc2ccc(O)cc2)nc1NCCc1ccc(O)cc1` [Compound R926397], for which the concentration for half-maximal inhibition (IC50) was 12.5 µM. This lies in the double-digit micromolar range.

`CNC(=O)c1cc(Nc2nc(NC)ncc2F)ccc1OC` [Compound R940304]: the IC50 was over 10 µM.

The compound `CCOC(=O)c1cc2cccc(Nc3ncc(F)c(Nc4cc(OC)cc(OC)c4)n3)c2[nH]1` [Compound R926803] returned an IC50 of over 10 µM.
